A short description of data set [1]: Stability of platinum(II) complexes in PBS or PB, NMR. To be noted: 1 mM, pH 7.4, 37 °C, 8 h incubation, no GSH. The format is physicochemical. The method, then:
(§1) An 1 mM solution of Pt compound was incubated in a mixture of 90% PB or PBS (150 mM, pH 7.4) and 10% D2O at 37 °C with and without the addition of 10 equiv GSH. The reaction was monitored with ^1H or [^1H, ^15N] […] The reference spectrum was shifted with a value of −0.5 ppm compared to the original ppm value calibrated to D2O before overlay with a spectrum at a single time point. In case of ^15N-cisplatin, the cross-peak of the parental complex in [^1H, ^15N] HSQC at time point 0 h was used as reference, and spectral overlay was achieved by shifting the 2D spectra at all given time points (2, 4, 6, and 8 h) with vertical steps of +14 ppm compared to the original ^15N NMR ppm value of the parental complex.

In data set [2] the test system is CT26 colon cancer cells. Kind of data set: Colony formation (clonogenic) assay, CT26, 7 days. To be noted: 7 days drug exposure. The format is cell-based, murine. An excerpt:
(§2) For the cell culture assays, the human ovarian model A2780/wt and its corresponding cisplatin-resistant subline A2780/cis (both purchased from Sigma and cultured in RPMI1640 medium), the human colorectal cancer model HCT116 (cultured in McCoy′s medium), and the murine (Balb/c) colorectal cancer model CT26 (cultured in DMEM/F-12 (1:1) medium) were used. The colon cancer models were purchased from the American Type Culture Collection (ATCC). The media were supplemented with 10% FCS (purchased from PAA Linz, Austria). To maintain drug resistance of A2780/cis, the subline was cultivated under continuous selection pressure (1 μM cisplatin). The selection drug was removed 1 week before the experiments were performed. Cell cultures were maintained at 37 °C in humidified atmosphere containing 5% CO2. All cultures were free of antibiotics and regularly checked for mycoplasma contamination. All cell culture media and reagents were purchased from Sigma-Aldrich Austria. All investigated drugs were dissolved in either water (oxaliplatin, carboplatin) or DMF before further dilution in cell culture medium. DMF concentrations were always below 0.5%.
(§3) Then, cells were exposed to the indicated drugs in rising concentrations. After 7 days, the cells were fixed with methanol for 20 min at 4 °C and stained with crystal violet 5 (0.01% in PBS). The fluorescence of the crystal violet was detected by the Typhoon scanner (Typhoon TRIO Variable Mode Imager, GE Healthcare Life Sciences) after excitation by the red laser (633 nm). Quantification was done with ImageJ software.

Data set [3] deals with CT26 colon cancer cells. Kind of data set: MTT-based cell viability assay, CT26, 72 h. On the set-up: species or system murine. To be noted: 72 h drug exposure.
Source text: as §2
(§4) Subsequently, the cells were incubated with the tested compounds in rising concentrations. […] The received data were visualized as dose–response curves by Graph Pad Prism 5 software (Graph Pad software, USA).

The subject of data set [4] is A2780/cis ovarian cancer cells. The data set is described as follows: MTT-based cell viability assay, A2780/cis (cisplatin-resistant), 72 h. On the set-up: species or system human. To be noted: for IC50 in A2780/cis compared to A2780/wt / RF (resistance factor): 72 h; for IC50 in A2780/cis compared to A2780/wt / IC50: MTT-based assay; for IC50: 72 h drug exposure, cisplatin-resistant subline, means of independent experiments; for RF (resistance factor): fold-change between IC50 values of A2780/cis:A2780/wt.
Source text: as §2, §4
In general terms: Formazan colour is commonly taken as a measure of viable cells.

Data set [5] has as its system HCT116 colon cancer cells. The data set is described as follows: Colony formation (clonogenic) assay, HCT116, 7 days. The format is cell-based, human. To be noted: 7 days drug exposure, clonogenic assay.
Source text: as §2, §3

The subject of data set [6] is A2780/wt ovarian cancer cells. Kind of data set: MTT-based cell viability assay, A2780/wt, 72 h. Details: species or system human. To be noted: 72 h drug exposure, means of independent experiments.
Source text: as §2, §4

Data set [7] has as its system HCT116 colon cancer cells. The data set is described as follows: MTT-based cell viability assay, HCT116, 72 h. To be noted: 72 h drug exposure. On the set-up: species or system human.
Source text: as §2, §4

The nature of data set [8]: Interaction of platinum(II) complexes with 10 equiv GSH, NMR. To be noted: 1 mM complex, 10% D2O/90% PBS pH 7.4, 37 °C. The format is physicochemical. The procedure:
The amount of remaining platinum(II) complex was monitored via ^1H NMR spectroscopy and, particularly for ^15N-cisplatin, via [^1H, ^15N] heteronuclear single quantum coherence (HSQC) NMR spectroscopy (Figure 1).[47]
as §1

Data set [9] can be described thus: Reduction kinetics of platinum(IV)-succinimide complexes with AA, UHPLC. The format is physicochemical. To be noted: 1 mM, 10 equiv AA, 150 mM PB pH 7.4, 20 °C, 6 h. The procedure:
Platinum(IV) prodrugs need to be reduced in the tumor environment to release the cytotoxic platinum(II) complexes. Thus, the reduction properties of Pico-Succ, PicoCarbo-Succ, and PicoOxali-Succ were investigated. As mentioned above, succinimide complexes were used for these studies to avoid competitive hydrolysis of the maleimide moiety. All platinum(IV)-succinimide complexes were incubated in both the absence and presence of a 10-fold excess L-ascorbic acid (AA) in PB at pH 7.4 and 20 °C over 6 h. The amount of remaining intact platinum(IV) complex at given time points was measured via ultrahigh performance liquid chromatography (UHPLC), as shown in Figure 2. Pico-Succ was reduced extremely fast, with only traces of the original complex left in the first measurement after ∼5 min of incubation. Even with equimolar amounts of AA, 90% of Pico-Succ was already reduced after ∼5 min (Figure S6). This level of reductive instability is exceptionally high, even when compared to the “fast” reducing cisplatin(IV) prodrugs, which show a complete conversion after ∼10 h in the presence of 10 equiv AA.[41],[53]
(§5) PB (150 mM, pH 7.4) containing 1 mM Pt compound was incubated at 20 °C with and without the addition of 10 equiv L-ascorbic acid or reduced GSH. The reaction was monitored on a Thermo Scientific Dionex UltiMate 3000 UHPLC-system using a Waters Acquity UPLC BEH C18 1.7 μm, 3.0 × 50 mm column. Milli-Q water containing 0.1% formic acid and acetonitrile containing 0.1% formic acid were used as eluents. A gradient of 5–95% over 5 min was used with a flow of 0.6 mL/min. To evaluate the reaction process, we used the peak area of the parental complex.

The target of a further data set is albumin (Bos taurus, UniProt P02769). Kind of data set: Albumin binding and stability in phosphate-buffered FCS, SEC-ICP-MS. To be noted: 50 μM in FCS (150 mM PB, pH 7.4), 37 °C, over 25 h; 195Pt only in LMWF. The procedure:
FCS was purchased from Sigma-Aldrich and buffered with 150 mM phosphate pH 7.4 in order to guarantee a stable pH. The platinum(IV) complexes were dissolved in 150 mM PB (pH 7.4) at a concentration of 5 mM and diluted 1:100 in buffered serum to obtain a final concentration of 50 μM. […] Between each sample, a pure water blank was measured. […] Oxygen (purity 5.5, Messer Austria GmbH, Gumpoldskirchen, Austria) was used as the reaction gas.

Data set [10] is described as follows: Reduction of platinum(IV)-succinimide complexes with 10 equiv GSH, UHPLC. The format is physicochemical. To be noted: 1 mM, 150 mM PB pH 7.4, 20 °C, 6 h.
Source text: It is well-known that platinum(IV) complexes derived from, e.g., oxaliplatin or carboplatin, bearing leaving groups other than chlorido ligands, have distinctly slower reduction rates compared to cisplatin(IV) analogs.[54] This can be explained by a bridging interaction between the chlorido ligands and the reducing agent, which facilitates electron transfer to the platinum center.[55] […] The reductive behavior was also investigated in the presence of 10 equiv GSH in coherence with the above investigated interactions of platinum(II) with GSH (Figure S8).
as §5

The test system of a further data set is CT26 tumors. Kind of data set: Anticancer activity in vivo, CT26-bearing Balb/c mice. To be noted: i.v. on days 3 and 10, dose equimolar to 20 mg/kg picoplatin. The method, then: Ten-week-old Balb/c mice were purchased from Envigo Laboratories (San Pietro al Natisone, Italy). […] Animals were controlled for distress development every day, and tumor size was assessed regularly by caliper measurement. Tumor volume was calculated using the formula: (length × width^2)/2.
CT26 cells (5 × 10^5 in serum-free medium) were injected subcutaneously into the right flank of male Balb/c mice. Therapy was started when tumor nodules were palpable (day 3). […] Mice were sacrificed by cervical dislocation in the case of a tumor length >20 mm, tumor ulceration, or other signs for distress.

SMILES strings stand for the structures. Marks after values point to notes of the source that are not given here.

A word on the IC50: it is the point on the concentration scale where inhibition reaches its midpoint. Read a high IC50 as weaker potency in that assay.

albumin, sequence (P02769 25-607): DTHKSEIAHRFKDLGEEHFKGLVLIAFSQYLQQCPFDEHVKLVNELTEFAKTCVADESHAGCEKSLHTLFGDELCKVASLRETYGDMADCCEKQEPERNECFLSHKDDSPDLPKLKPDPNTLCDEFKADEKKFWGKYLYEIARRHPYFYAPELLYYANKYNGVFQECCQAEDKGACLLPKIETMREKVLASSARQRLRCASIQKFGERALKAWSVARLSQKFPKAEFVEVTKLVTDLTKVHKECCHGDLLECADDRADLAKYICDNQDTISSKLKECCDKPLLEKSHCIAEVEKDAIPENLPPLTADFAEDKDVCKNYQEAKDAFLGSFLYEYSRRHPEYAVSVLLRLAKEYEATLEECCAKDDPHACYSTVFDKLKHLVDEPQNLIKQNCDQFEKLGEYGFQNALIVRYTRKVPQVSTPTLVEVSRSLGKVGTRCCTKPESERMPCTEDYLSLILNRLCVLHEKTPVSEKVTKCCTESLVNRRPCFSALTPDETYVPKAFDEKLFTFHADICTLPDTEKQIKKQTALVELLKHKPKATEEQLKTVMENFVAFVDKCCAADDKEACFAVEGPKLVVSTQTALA

For the molecule `Cc1ccccn1.N.O=C1[O][Pt][O]C1=O` [PicoOxali], the “complex left in 10% D2O/90% PB” value in data set [1] is listed as more than 90%. In data set [1], the “complex left in 10% D2O/90% PBS” value is “readily degraded”. The IC50 in the data set with CT26 colon cancer cells [2] is 7.26 µM; with CT26 colon cancer cells [3], 33.7 µM; in data set [4], 46 µM; in data set [5], 15.8 µM; in data set [6] it was 33.4 µM; in data set [7] it was more than 100 µM. Also, in data set [4], the “IC50 in A2780/cis compared to A2780/wt” value came to 1.4 fold. In data set [4], the “RF (resistance factor)” value is 1.4^ns.
Consider `[15NH3].[15NH3].[Cl][Pt][Cl]` [^15N-cisplatin, cis-[PtCl2(^15NH3)2]], for which, in data set [1], the “complex left in 10% D2O/90% PBS” value is more than 95%. The “platinum(II) complex left after 2 h with GSH” value in data set [8] (2 h, [1H,15N] HSQC NMR) is listed as approximately 20%. The “platinum(II) complex reacted with GSH after 4 h” value in data set [8] (4 h) is “nearly complete reaction”.
In the case of `CC(=O)[O][Pt]1([O]C(=O)NCCN2C(=O)CCC2=O)[O]C(=O)C(=O)[O]1.Cc1ccccn1.N` [PicoOxali-Succ, (OC-6-21)[Acetato(ammine)(1-(2-isocyanatoethyl)pyrrolidine-2,5-dione)(2-methylpyridine)(oxalato)platinum(IV)]], the “intact platinum(IV) complex left after 6 h with AA” value in data set [9] is given as approximately 70%. The IC50 (in the data set on CT26 colon cancer cells [2]; in the data set with CT26 colon cancer cells [3]; in data set [4]; in data set [5]; in [6]; in data set [7]) was more than 100 µM in each case. The albumin conjugation result on albumin was “no albumin conjugation”. Further, in [10], the “reduction with 10 equiv GSH over 6 h” value is given as “no notable reduction”.
For `Cc1ccccn1.N.O=C1[O][Pt][O]C(=O)C12CCC2` [PicoCarbo, (SP-4-4)[(Ammine)(cyclobutane-1,1-dicarboxylato)(2-methylpyridine)platinum(II)]], the “complex left in 10% D2O/90% PBS” value in data set [1] was more than 95%. The IC50 in the data set on CT26 colon cancer cells [2] is 26.3 µM; with CT26 colon cancer cells [3], 74.5 µM; in data set [4] it was more than 100 µM; in [5] it was 90 µM; in data set [6], more than 100 µM; in data set [7], more than 100 µM. Besides, the “intact platinum(II) complex left after 8 h with GSH” value in [8] (8 h, 1H NMR) was approximately 90%.
As to `CC(=O)[O][Pt]1([O]C(=O)NCCN2C(=O)CCC2=O)[O]C(=O)C2(CCC2)C(=O)[O]1.Cc1ccccn1.N` [PicoCarbo-Succ, (OC-6-21)[Acetato(ammine)(cyclobutane-1,1-dicarboxylato)(1-(2-isocyanatoethyl)pyrrolidine-2,5-dione)(2-methylpyridine)platinum(IV)]], the “intact platinum(IV) complex left after 6 h with AA” value in data set [9] is reported as approximately 90%. Besides, the IC50 (in the data set with CT26 colon cancer cells [2]; in the data set on CT26 colon cancer cells [3]; in [4]; in [5]; in data set [6]; in [7]) was more than 100 µM in each case. In addition, the “reduction with 10 equiv GSH over 6 h” value in data set [10] was “no notable reduction”.
For the molecule `CC(=O)[O][Pt]1([O]C(=O)NCCN2C(=O)C=CC2=O)[O]C(=O)C2(CCC2)C(=O)[O]1.Cc1ccccn1.N` [PicoCarbo-Mal, (OC-6-21)[Acetato(ammine)(cyclobutane-1,1-dicarboxylato)(1-(2-isocyanatoethyl)-1H-pyrrole-2,5-dione)(2-methylpyridine)platinum(IV)]], in the data set with CT26 tumors, the “impact on tumor growth” value was “significantly inhibited tumor growth”.
Turning to `N.N.[Cl][Pt][Cl]` [cisplatin, reference compound], the 50% inhibitory concentration (IC50) was found to be 0.46 µM in the data set on CT26 colon cancer cells [2]; 2.17 µM in the data set on CT26 colon cancer cells [3]; 7.81 µM in [4]; 0.82 µM in data set [5]; 1.54 µM in data set [6]; 3.15 µM in data set [7]. For the same molecule, the “IC50 in A2780/cis compared to A2780/wt” value in data set [4] is on record as 5.1 fold. In addition, the “RF (resistance factor)” value in [4] is on record as 5.1****.

The values are drawn from article PMC11815855, “Exploring the Structure–Activity Relationships of Albumin-Targeted Picoplatin-Based Platinum(IV) Prodrugs” (Inorganic Chemistry, 2025).
